According to article PMC6149849, “Cymantrenyl-Nucleobases: Synthesis, Anticancer, Antitrypanosomal and Antimicrobial Activity Studies” (Molecules : A Journal of Synthetic Chemistry and Natural …, 2017):
Where two headings read alike, the source gives them in different places.

Columns and labels:
[1] = tested on: SKOV-3 (ovarian adenocarcinoma); experiment: MTT cytotoxicity assay, SKOV-3; format: cell-based, human
Method: (§4) Anticancer activity of cymantrenes was determined using a panel of human cancer cell lines that were derived from solid tumors. […] The inhibitory effect of cymantrene derivatives on cell proliferation and growth was determined based on survival curves and was expressed as IC50 values (concentration required to achieve a 50% decrease in cell viability when compared to the viability of untreated control cells) calculated using GraphPad Prism 4.02 software for Windows (GraphPad Software, San Diego, CA, USA). Cell viability was determined by the MTT microplate spectrophotometric cytotoxicity test.
(§5) Cells were grown as a monolayer in DMEM growth medium, supplemented with 10% FBS, penicillin (10 U/mL) and streptomycin (50 μg/mL), under standard conditions (37 °C, 5% CO2 and 95% air, 100% humidity) and periodically checked for Mycoplasma contamination.
(§6) The cytotoxicity of cymantrene derivatives was evaluated by the MTT microplate methods as described elsewhere [67] by incubating the cells with increasing concentrations of tested compounds for 24 h. Briefly, 0.1 mL of logarithmically growing cells were seeded in a 96-well microplate (5 × 10^4 cells/well) a day before the experiments and after 24 h of culture, tested compounds, dissolved in DMSO, and diluted in culture medium, were added. […] After further incubation for 24 h, the medium was replaced with fresh medium and the cells were allowed to grow for additional 48 h. Then, the medium was aspirated and 0.05 mL of MTT (final concentration of 5 mg/mL medium) added to each well, and the cells were incubated for further 4 h. The absorbance of the product, resulting from the MTT reduction, was read with a microplate reader at 545 nm. The percentage of viable cells was calculated by comparing the absorbance of treated cells with that of the untreated control cells (taken as 100%). The IC50 concentration of each compound was calculated from the cell survival curves using GraphPad Prism 4.02 software for Windows (GraphPad Software, San Diego, CA, USA).

[2] = tested on: E. coli ATCC BAA-198 (ESBL); experiment: Antibacterial liquid microdilution (CLSI M07-A8); format: cell-based, Escherichia coli; conditions: 18 to 24 h
Method: (§1) Organometallic compounds play an increasingly important role in the search for new antibacterial agents. We, therefore, thought to investigate also the bactericidal activity of the newly synthesized cymantrenes 1–7, compound C and CymH. The antibacterial activity of the compounds was tested against Gram-positive methicillin-sensitive Staphylococcus aureus (MSSA), methicillin-resistant S. aureus (MRSA), vancomycin-intermediate S. aureus (VISA), S. epidermidis, and Gram-negative Escherichia coli bacterial strains, and expressed as minimal inhibitory concentration (MIC) values (Table 3).
(§2) The antibacterial activity of CymH, 1–7 and C and the reference drugs penicillin G and polymyxin B was tested by the liquid microdilution method under standard conditions using twofold dilution series, as described in the Clinical and Laboratory Standards Institute (CLSI), reference method M07-A8, and expressed as minimal inhibitory concentration (MIC) values. A panel of Gram-positive bacterial strains, S. aureus ATCC® 29213 (sensitive to methicillin, (MSSA)), S. aureus ATCC® 43300 (resistant to methicillin, (MRSA)), S. aureus ATCC 700787™ (intermediate to vancomycin, (VISA)), and S. epidermidis ATCC 12228™, and one Gram-negative, strain E. coli ATCC BAA-198™ (ESBL) were used. In addition, four clinical isolates of S. aureus (MSSA and MRSA) and two clinical isolates of S. epidermidis that were collected from different patients at the Medical University of Warsaw, Poland, were also tested. The bacterial cells were cultivated on tryptic soy agar (TSA) and nutrient agar (NA), according to ATCC recommendations. All of the strains were incubated at 37 °C. Tested compounds were dissolved in DMSO and then serially diluted twofold with cation-adjusted Mueller-Hinton broth (CAMHB). Then, 95 µL of the dilutions were dispensed into microdilution sterile plates (Mar-Four), followed by the addition of 5 µL of bacteria inoculum containing 5 × 10^4 CFU/mL. The final concentrations of the compounds ranged from 512 to 2 µg/mL. Each compound was tested in triplicate, and Penicillin G (8–0.15 µg/mL) and Polymyxin B (256–0.0625 µg/mL) were used as controls. The plates were incubated at 37 °C for 18 to 24 h depending on the bacterial strain. Thereafter, the absorbance was measured at λ = 540 nm and λ = 595 nm using a Spectrostar Omega microplate reader (BMG Labtech, Offenburg, Germany). The MIC value was defined as the lowest concentration of a compound that reduced the growth by 100%.

[3] = tested on: human myeloid leukemia HL-60 cells; experiment: General cytotoxicity, resazurin viability assay
Method: (§3) All of the cultures were maintained at 37 °C in a humidified atmosphere containing 5% of CO2. Toxicity assays were performed, as previously described, with some modifications. In brief, trypanosomes and HL-60 cells were seeded at an initial cell density of 10^4/mL and 5 × 10^4/mL, respectively, in 96-well plates in a final volume of 200 μL culture medium containing various concentrations of test compounds dissolved in 100% DMSO. […] The controls contained DMSO alone. In all of the experiments, the final DMSO concentration was 0.9%. After 24 h incubation, 20 µL of a 0.5 mM resazurin solution prepared in PBS was added and the cultures were incubated for a further 48 h. Resazurin is a vital dye that, when being reduced by living cells, changes its colour from blue to pink. Thus, by measuring absorbance, the proliferation of cells can be easily determined. The change in absorbance was read with a microplate reader using a test wavelength of 570 nm and a reference wavelength of 630 nm. GI50 values were calculated by linear interpolation according to the method described by Huber and Koella. MIC values were determined microscopically.

[4] = tested on: MCF-7 (hormone-responsive breast adenocarcinoma); experiment: MTT cytotoxicity assay, MCF-7; format: cell-based, human
Method: as §4, §5, §6

[5] = tested on: HepG2 (hepatocellular carcinoma); experiment: MTT cytotoxicity assay, HepG2; format: cell-based, human
Method: as §4, §5, §6

[6] = tested on: S. aureus ATCC 43300 (MRSA); experiment: Antibacterial liquid microdilution (CLSI M07-A8); format: cell-based, Staphylococcus aureus; conditions: 18 to 24 h
Method: as §1, §2

[7] = tested on: S. aureus ATCC 29213 (MSSA); experiment: Antibacterial liquid microdilution (CLSI M07-A8); format: cell-based, Staphylococcus aureus; conditions: 18 to 24 h
Method: as §1, §2

[8] = tested on: S. aureus ATCC 700787 (VISA); experiment: Antibacterial liquid microdilution (CLSI M07-A8); format: cell-based, Staphylococcus aureus; conditions: 18 to 24 h
Method: as §1, §2

[9] = tested on: S. epidermidis ATCC 12228; experiment: Antibacterial liquid microdilution (CLSI M07-A8); format: cell-based, Staphylococcus epidermidis; conditions: 18 to 24 h
Method: as §1, §2

[10] = tested on: bloodstream forms of T. brucei clone 427-221a; experiment: Trypanocidal assay, resazurin viability assay; format: cell-based, Trypanosoma brucei; conditions: for GI50: 50% growth inhibition; for MIC and GI50 ratios of cytotoxic to trypanocidal activities: HL-60 / T. brucei; for MIC: concentration at which all cells were killed, determined microscopically; for Selectivity GI50 Ratio / Selectivity MIC Ratio: ratio of cytotoxic (HL-60) to trypanocidal (T. brucei) activity
Method: as §3

U87-MG (glioblastoma) = experiment: MTT cytotoxicity assay, U87-MG; format: cell-based, human
Method: as §4, §5, §6

[11] = 24 h incubation, MTT, means ± SEM, read-out: cytotoxicity IC50, SKOV-3
[12] = concentration at which all cells were killed
[13] = read-out: HL-60 GI50, 50% growth inhibition
[14] = 24 h incubation, MTT, means ± SEM, read-out: cytotoxicity IC50, MCF-7
[15] = 24 h incubation, MTT, means ± SEM, read-out: cytotoxicity IC50, HepG2
[16] = 24 h incubation, MTT, means ± SEM, read-out: cytotoxicity IC50, U87-MG

SMILES	IC50 [1, 11]	MIC, E. coli ATCC BAA-198 [2]	HL-60 MIC [3, 12]	GI50 [3, 13]	IC50 [4, 14]	IC50 [5, 15]	MIC, S. aureus ATCC 43300 (MRSA) [6]	MIC, S. aureus ATCC 29213 (MSSA) [7]	MIC, S. aureus ATCC 700787 (VISA) [8]	MIC, S. epidermidis ATCC 12228 [9]	GI50 [10]	MIC and GI50 ratios of cytotoxic to trypanocidal activities [10]	MIC [10]	Selectivity GI50 Ratio [10]	Selectivity MIC Ratio [10]	IC50 (U87-MG (glioblastoma); [16])	IC50 [1]	IC50 [4]	IC50 [5]	IC50 (U87-MG (glioblastoma))	further results
O=c1[nH]c(=O)n(CCC(O)[C]23[CH]4[CH]5[CH]6[CH]2[Mn]5643[P](c2ccccc2)(c2ccccc2)c2ccccc2)cc1F.[C-]#[O+].[C-]#[O+] (racemic) [Compound 3]	53 ± 2.65 µM	>256 µg/mL	100 µM	30.6 ± 2.6 µM	57.8 ± 2.89 µM	65.8 ± 3.29 µM	>256 µg/mL	>256 µg/mL	>256 µg/mL	>256 µg/mL	4.27 ± 0.13 µM	7–13	10 µM	7.2	10	24.9 ± 1.24 µM	–	–	–	–	–
COC(CCn1cc(F)c(=O)n(C)c1=O)[C]12[CH]3[CH]4[CH]5[CH]1[Mn]4532.[C-]#[O+].[C-]#[O+].[C-]#[O+] (racemic) [Compound 4]	–	>512 µg/mL	–	–	–	–	>512 µg/mL	>512 µg/mL	>512 µg/mL	>512 µg/mL	29.6 ± 6.8 µM	–	100 µM	>3.4	>1	–	> 150 µM	> 150 µM	> 150 µM	> 150 µM	GI50 [3]: > 100 µM; HL-60 MIC [3]: >100 µM
Nc1ncnc2c1ncn2CCC(O)[C]12[CH]3[CH]4[CH]5[CH]1[Mn]4532[P](c1ccccc1)(c1ccccc1)c1ccccc1.[C-]#[O+].[C-]#[O+] (racemic) [Compound 5]	63.8 ± 3.19 µM	>256 µg/mL	100 µM	28.7 ± 3 µM	102 ± 1.11 µM	106 ± 2.31 µM	>256 µg/mL	>256 µg/mL	>256 µg/mL	>256 µg/mL	3.14 ± 0.31 µM	7–13	10 µM	9.1	10	54.2 ± 2.71 µM	–	–	–	–	–
COC(CCn1cnc2c(N(C)C)ncnc21)[C]12[CH]3[CH]4[CH]5[CH]1[Mn]4532.[C-]#[O+].[C-]#[O+].[C-]#[O+] (racemic) [Compound 6]	–	>512 µg/mL	–	–	–	–	>512 µg/mL	>512 µg/mL	>512 µg/mL	>512 µg/mL	26.1 ± 1.9 µM	–	100 µM	3.6	>1	–	77.1 ± 3.86 µM	111 ± 3.57 µM	86.9 ± 2.34 µM	131 ± 3.53 µM	GI50 [3]: 95.2 ± 44.4 µM; HL-60 MIC [3]: >100 µM
Nc1ncnc2c1ncn2CCC(O)[C]12[CH]3[CH]4[CH]5[CH]1[Mn]45321[P](c2ccccc2)(c2ccccc2)CC[P]1(c1ccccc1)c1ccccc1.[C-]#[O+] (racemic) [Compound C]	–	>128 µg/mL	–	–	–	–	32 µg/mL	32 µg/mL	32 µg/mL	16 µg/mL	–	–	–	–	–	–	–	104 ± 1.19 µM	66.6 ± 3.33 µM	38.3 ± 1.91 µM	–
O=C(CCn1cc(F)c(=O)[nH]c1=O)[C]12[CH]3[CH]4[CH]5[CH]1[Mn]4532.[C-]#[O+].[C-]#[O+].[C-]#[O+] (centres unmarked) [Compound 1]	–	>512 µg/mL	–	–	–	–	32 µg/mL	64 µg/mL	32 µg/mL	8 µg/mL	3.02 ± 0.14 µM	7–13	10 µM	11.0	10	–	75.1 ± 3.76 µM	70.5 ± 2.52 µM	114 ± 2.72 µM	64.5 ± 3.22 µM	GI50 [3]: 33.1 ± 3.4 µM; HL-60 MIC [3]: 100 µM
CCC(=O)[C]12[CH]3[CH]4[CH]5[CH]1[Mn]4532.[C-]#[O+].[C-]#[O+].[C-]#[O+] (centres unmarked) [Compound 7, propionylocymantrene]	–	>512 µg/mL	–	–	–	–	>512 µg/mL	>512 µg/mL	>512 µg/mL	>512 µg/mL	–	–	–	–	–	–	69.8 ± 3.49 µM	> 150 µM	110 ± 2.48 µM	83.6 ± 1.18 µM	–
O=[C]=[Mn](=[C]=O)(=[C]=O)[CH]1C=CC=C1 [CymH, tricarbonyl(η^5-cyclopentadienyl)manganese, reference compound]	121 ± 3.05 µM	>512 µg/mL	>100 µM	> 100 µM	86 ± 1.3 µM	74.7 ± 3.73 µM	>512 µg/mL	>512 µg/mL	>512 µg/mL	>512 µg/mL	44.6 ± 12.3 µM	–	100 µM	>2.2	>1	84.4 ± 4.22 µM	–	–	–	–	–
